Drawing on patent US12612412B2, “Antiviral heterocyclic compounds” (Enanta Pharmaceuticals, Inc., priority 2021, dated 2026), this text covers EC50 for 39 molecules.

Test [1] has as its system genotype A, "Long" strain RSV. Description: RSV-A assay (CPE protection in Hep-2 cells, ATPlite readout). The format is cell-based, Human respiratory syncytial virus (HRSV). The settings on record: human respiratory syncytial virus, genotype A “Long” strain RSV, MOI 0.1, CPE protection, read-out: Human RSV-A (“Long”). The gist of the method:
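In this cytopathic-effect protection format, infected Hep-2 cultures (MOI 0.1) are exposed to compound for 5 days. Surviving cell ATP is quantified with ATPlite, and EC50 is determined.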
On the technique in general: Cellular ATP, detected with luciferase, serves as a proxy for viable cell number.

The test system of test [2] is HMPV clinical isolate TN/1501/A1. The test is described as follows: HMPV antiviral assay Method-B (clinical isolate TN/1501/A1 in LLC-MK2 cells, ATP-Lite readout). The format is cell-based, Human metapneumovirus (HMPV). To be noted: human metapneumovirus, LLC-MK2, 144 h, hMPV WT1501 (clinical isolate TN/1501/A1), 6 days. The method, boiled down:
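EC50 derived by four-parameter logistic fit of percent cell health, measured by ATP-Lite luminescence and normalised to virus-only and uninfected-cell controls. Compounds run in duplicate from 10 μM top, 3-fold, 10 points. Infection: LLC-MK2 cells, MOI 0.014, 2 μg/mL final TPCK-trypsin, serum-free, 6 days at 37° C.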

Where only a bound is given, the exact number is not on record here.

For the molecule `COc1cc(C(=O)NC[C@](O)(c2cc3c(c(-c4ccc(C(F)(F)F)c(Cl)c4)n2)OC[C@]3(C)C(N)=O)C(F)(F)F)cc2cn(C(F)F)nc12` [Example 580], the values for the EC50 in test [1] and in test [2] were less than 200 nM and more than 500 nM, respectively.
On to `COc1cc(C(=O)NC[C@](O)(c2cc3c(c(-c4ccc(C(F)(F)F)c(Cl)c4)n2)OC[C@]3(C)C(N)=O)C(F)(F)F)cc2cc(Cl)c(C)nc12` [Example 581], for which the EC50 is less than 200 nM in test [1] and more than 500 nM in test [2].
`COc1cc(C(=O)NC[C@](O)(c2cc3c(c(-c4cnc(C#N)c(Cl)c4)n2)OC[C@]3(C)C(N)=O)C(F)(F)F)cc2cn(C(F)F)nc12` [Example 582]: the values for the EC50 in test [1] and in test [2] were less than 200 nM and more than 500 nM, respectively.
Take `COc1cc(C(=O)NC[C@](O)(c2cc3c(c(-c4cnc(C#N)c(Cl)c4)n2)OC[C@]3(C)C(N)=O)C(F)(F)F)cc2cn(C3CC3)nc12` [Example 583]: the figures for the EC50 in test [1] and in test [2] were less than 200 nM and more than 500 nM, respectively.
As to `COc1cc(C(=O)NC[C@](O)(c2cc3c(c(-c4ccc(Cl)cc4)n2)OC[C@]3(C)C(N)=O)C(F)(F)F)cc2cn(C3CC3)nc12` [Example 585], the EC50 in test [1] is less than 200 nM; in test [2], more than 500 nM.
Take `COc1cc(C(=O)NC[C@](O)(c2cc3c(c(-c4ccc(Cl)cc4)n2)OC[C@]3(C)C(N)=O)C(F)(F)F)cc2cn(C(F)F)nc12` [Example 586]: the values for the EC50 in test [1] and in test [2] were less than 200 nM and more than 500 nM, respectively.
Turning to `COc1cc(C(=O)NC[C@](O)(c2cc3c(c(-c4cnc(Cl)c(Cl)c4)n2)OC[C@]3(C)C(N)=O)C(F)(F)F)cc2cn(C3CC3)nc12` [Example 587], the EC50 is less than 200 nM in test [1] and more than 500 nM in test [2].
`COc1cc(C(=O)NC[C@](O)(c2cc3c(c(-c4cnc(Cl)c(Cl)c4)n2)OC[C@]3(C)C(N)=O)C(F)(F)F)cc2cc(Cl)c(C)nc12` [Example 588]: the EC50 in test [1] is less than 200 nM; in test [2] it was more than 500 nM.
On to `COc1cc(C(=O)NC[C@](O)(c2cc3c(c(-c4cnc(Cl)c(Cl)c4)n2)OC[C@]3(C)C(N)=O)C(F)(F)F)cc2cn(C(F)F)nc12` [Example 589], for which the results for the EC50 in test [1] and in test [2] were less than 200 nM and more than 500 nM, respectively.
For the molecule `C[C@]1(C(N)=O)COc2c1cc([C@@](O)(CNC(=O)c1cc(O)c3nn(C4CC4)cc3c1)C(F)(F)F)nc2-c1ccc(F)cc1` [Example 590], the EC50 is less than 200 nM in test [1] and more than 500 nM in test [2].
For `COc1cc(C(=O)NC[C@](O)(c2cc3c(c(-c4ccc5c(c4)OC(F)(F)O5)n2)OC[C@]3(C)C(N)=O)C(F)(F)F)cc2cn(C(F)F)nc12` [Example 591], the figures for the EC50 in test [1] and in test [2] were less than 200 nM and less than 500 nM, respectively.
For `C[C@]1(C(N)=O)COc2c1cc([C@@](O)(CNC(=O)c1ccn3nc(C4CC4)cc3c1)C(F)(F)F)nc2-c1ccc2c(c1)OC(F)(F)O2` [Example 592] the same measures were less than 200 nM and less than 500 nM.
For the molecule `COc1cc(C(=O)NC[C@](O)(c2cc3c(c(-c4csc5c(F)cccc45)n2)OC[C@]3(C)C(N)=O)C2CC2)cc2cn(C3CC3)nc12` [Example 593], the EC50 in test [1] is less than 200 nM; in test [2], less than 500 nM.
Consider `COc1cc(C(=O)NC[C@](O)(c2cc3c(c(-c4csc5c(F)cccc45)n2)OC[C@]3(C)C(N)=O)C2CC2)cc2cn(C(F)F)nc12` [Example 594], for which the EC50 in test [1] was less than 200 nM; in test [2], less than 500 nM.
Turning to `COc1cc(C(=O)NC[C@](O)(c2cc3c(c(-c4csc5c(F)cccc45)n2)OC[C@]3(C)C(N)=O)C2CC2)cc2cc(Cl)c(C)nc12` [Example 595], the EC50 is less than 200 nM in test [1] and less than 500 nM in test [2].
For `COc1cc(C(=O)NC[C@](O)(c2cc3c(c(-c4csc5c(F)cccc45)n2)OC[C@]3(C)C(N)=O)C(F)(F)F)cc2cc(Cl)c(C)nc12` [Example 596], the EC50 in test [1] was less than 200 nM; in test [2] it was less than 500 nM.
As to `C[C@]1(C(N)=O)COc2c1cc([C@@](O)(CNC(=O)c1cc(OC3CC3)n3nc(C4CC4)cc3c1)C(F)(F)F)nc2-c1csc2c(F)cccc12` [Example 597], the EC50 was less than 200 nM in test [1] and more than 500 nM in test [2].
On to `COc1cc(C(=O)NC[C@](O)(c2cc3c(c(-c4csc5c(F)cccc45)n2)OC[C@]3(C)C(N)=O)C(F)(F)F)cc2cc(C3CC3)nn12` [Example 598], for which the EC50 is less than 200 nM in test [1] and less than 500 nM in test [2].
On the same counts, the results for `COc1cc(C(=O)NC[C@](O)(c2cc3c(c(-c4csc5c(F)cccc45)n2)OC[C@]3(C)C(N)=O)C(F)(F)F)cc2cn(C3(F)CC3)nc12` [Example 599] are less than 200 nM and less than 500 nM.
As for `COc1cc(C(=O)NC[C@](O)(c2cc3c(c(-c4csc5c(F)cccc45)n2)OC[C@]3(C)C(N)=O)C(F)(F)F)cc2cn(C(F)F)nc12` [Example 600], the EC50 is less than 200 nM in test [1] and less than 500 nM in test [2].
For `Cc1cnc2c(Cl)cc(C(=O)NC[C@](O)(c3cc4c(c(-c5csc6c(F)cccc56)n3)OC[C@]4(C)C(N)=O)C(F)(F)F)cc2c1` [Example 601], the EC50 in test [1] is less than 200 nM; in test [2], less than 500 nM.
Take `COc1cc(C(=O)NC[C@](O)(c2cc3c(c(-c4csc5c(F)cccc45)n2)OC[C@]3(C)C(N)=O)C(F)(F)F)cc2cc(Br)cnc12` [Example 602]: the results for the EC50 in test [1] and in test [2] were less than 200 nM and less than 500 nM, respectively.
`Cc1nc2c(OC3CC3)cc(C(=O)NC[C@](O)(c3cc4c(c(-c5csc6c(F)cccc56)n3)OC[C@]4(C)C(N)=O)C(F)(F)F)cc2cc1Cl` [Example 603]: the EC50 in test [1] is less than 200 nM; in test [2] it was more than 500 nM.
For `COc1cc(C(=O)NC[C@](O)(c2cc3c(c(-c4csc5c(F)cccc45)n2)OC[C@]3(C)C(N)=O)C2CC2)cc2cn(C3(F)CC3)nc12` [Example 604] the same measures were less than 200 nM and less than 500 nM.
For the molecule `C[C@]1(C(N)=O)COc2c1cc([C@@](O)(CNC(=O)c1cc(OC3CC3)c3nn(C4(F)CC4)cc3c1)C(F)(F)F)nc2-c1csc2c(F)cccc12` [Example 605], the EC50 is less than 200 nM in test [1] and less than 500 nM in test [2].
For `C[C@]1(C(N)=O)COc2c1cc([C@@](O)(CNC(=O)c1cc(OC3CC3)c3nn(C(F)F)cc3c1)C(F)(F)F)nc2-c1csc2c(F)cccc12` [Example 606] the same measures were less than 200 nM and less than 500 nM.
In the case of `C[C@]1(C(N)=O)COc2c1cc([C@@](O)(CNC(=O)c1cc(OC3CC3)c3nn(C4(F)CC4)cc3c1)C1CC1)nc2-c1csc2c(F)cccc12` [Example 607], the values for the EC50 in test [1] and in test [2] were less than 200 nM and less than 500 nM, respectively.
`C[C@]1(C(N)=O)COc2c1cc([C@@](O)(CNC(=O)c1cc(F)c3nn(C4CC4)cc3c1)C1CC1)nc2-c1csc2c(F)cccc12` [Example 608]: the EC50 in test [1] is less than 200 nM; in test [2], less than 500 nM.
For `C[C@]1(C(N)=O)COc2c1cc([C@@](O)(CNC(=O)c1cc(Cl)c3nn(C4CC4)cc3c1)C(F)(F)F)nc2-c1csc2c(F)cccc12` [Example 609] the same measures were less than 200 nM and less than 500 nM.
For the molecule `C[C@]1(C(N)=O)COc2c1cc([C@@](O)(CNC(=O)c1cc(OCC3CC3)c3nn(C4(F)CC4)cc3c1)C(F)(F)F)nc2-c1csc2c(F)cccc12` [Example 610], the values for the EC50 in test [1] and in test [2] were less than 200 nM and less than 500 nM, respectively.
On the same counts, the results for `C[C@]1(C(N)=O)COc2c1cc([C@@](O)(CNC(=O)c1cc(OCC(F)F)c3nn(C4(F)CC4)cc3c1)C(F)(F)F)nc2-c1csc2c(F)cccc12` [Example 611] are less than 200 nM and less than 500 nM.
`C[C@]1(C(N)=O)COc2c1cc([C@@](O)(CNC(=O)c1cc(OCCF)c3nn(C4(F)CC4)cc3c1)C(F)(F)F)nc2-c1csc2c(F)cccc12` [Example 612]: the EC50 in test [1] was less than 200 nM; in test [2], less than 500 nM.
For `COc1cc(C(=O)NC[C@](O)(c2cc3c(c(-c4cc(Cl)c(F)cc4F)n2)OC[C@]3(C)C(N)=O)C(F)(F)F)cc2cn(C3(F)CC3)nc12` [Example 613] the same measures were less than 200 nM and less than 500 nM.
With `COc1cc(C(=O)NC[C@](O)(c2cc3c(c(-c4cc(Cl)c(F)cc4F)n2)OC[C@]3(C)C(N)=O)C(F)(F)F)cc2cn(C(F)F)nc12` [Example 614], the EC50 was less than 200 nM in test [1] and more than 500 nM in test [2].
Regarding `C[C@]1(C(N)=O)COc2c1cc([C@@](O)(CNC(=O)c1cc(OC3CC3)c3nn(C4(F)CC4)cc3c1)C(F)(F)F)nc2-c1cc(Cl)c(F)cc1F` [Example 615], the EC50 was less than 200 nM in test [1] and less than 500 nM in test [2].
For `C[C@]1(C(N)=O)COc2c1cc([C@@](O)(CNC(=O)c1cc(OCC3CC3)c3nn(C4(F)CC4)cc3c1)C(F)(F)F)nc2-c1cc(Cl)c(F)cc1F` [Example 616] the same measures were less than 200 nM and less than 500 nM.
Take `C[C@]1(C(N)=O)COc2c1cc([C@@](O)(CNC(=O)c1cc(OCC(F)F)c3nn(C4(F)CC4)cc3c1)C(F)(F)F)nc2-c1cc(Cl)c(F)cc1F` [Example 617]: the values for the EC50 in test [1] and in test [2] were less than 200 nM and less than 500 nM, respectively.
`C[C@]1(C(N)=O)COc2c1cc([C@@](O)(CNC(=O)c1cc(OCCF)c3nn(C4(F)CC4)cc3c1)C(F)(F)F)nc2-c1cc(Cl)c(F)cc1F` [Example 618]: the values for the EC50 in test [1] and in test [2] were less than 200 nM and less than 500 nM, respectively.
With `C[C@]1(C(N)=O)COc2c1cc([C@@](O)(CNC(=O)c1cc(Cl)c3nn(C4CC4)cc3c1)C(F)(F)F)nc2-c1cc(Cl)c(F)cc1F` [Example 619], the EC50 in test [1] is less than 200 nM; in test [2], less than 500 nM.
